Data on 41 compounds can be found in ChEMBL document CHEMBL1201862, “PubChem BioAssay data set” (2004).

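Tested at 5 concentrations; 48 h exposure; 96-well plates; endpoints linearly interpolated, else capped at highest concentration. Here, GI50 denotes the concentration required for 50% inhibition of growth.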 Calls of active or inactive are those of the source. Rule as the data show it: active = GI50 up to about 1.1 µM and inactive = higher. Where a SMILES comes first, the peptide text is derived from it. The star is where a group is joined. Boc = CC(C)(C)OC(=O)*; Bn = c1ccc(C*)cc1

Among the test systems are DMS-273; KM-20L2; LXFL 529; RXF 631; BT-549; Hs-578T; MCF7; PC-3; MDA-N.
Assay in all cases: NCI tumour cell line growth inhibition, 48 h

For the compound `COc1ccc2[nH]c3c(C)c4c(c(C)c3c2c1)CN(C)CC4`, the GI50 is 13 µM (inactive) in the assay on DMS-273, 17 µM (inactive) in the assay with KM-20L2, 17 µM (inactive) in the assay with LXFL 529 and 21.7 µM (inactive) with RXF 631.
For `Oc1cc(CN2CCOCCOCCOCCOCC2)c(O)cc1CN1CCOCCOCCOCCOCC1`, the GI50 in the assay with KM-20L2 was > 50.6 µM (inactive); with LXFL 529, 21.1 µM (inactive).
Turning to `Cc1ccc(C)c(NC(=O)CC2C(=O)Nc3ccccc3S2(=O)=O)c1` (stereo not given), the GI50 in the assay on DMS-273 is 28.1 µM (inactive); in the assay on KM-20L2, > 100 µM (inactive); in the assay with LXFL 529 it was > 100 µM (inactive); in the assay on RXF 631 it was > 100 µM (inactive).
In the case of `CNCc1cc(OC)ccc1-c1ccc(OC)c(OC)c1OC`, the GI50 in the assay on DMS-273, in the assay with KM-20L2, in the assay on LXFL 529 and with RXF 631 was > 100 µM (inactive) each time.
On to `CC#CC#C/C=C1\C=CC2(OC=CC2O)O1` (stereo not given), for which the GI50 was > 23.3 µM (inactive) with DMS-273, 3.94 µM (inactive) with KM-20L2 and 6.24 µM (inactive) in the assay with LXFL 529.
As to `O=c1[nH]c(Br)nc2c(Br)c[nH]c12`, the GI50 in the assay on DMS-273, in the assay with KM-20L2, with LXFL 529 and in the assay on RXF 631 was > 100 µM (inactive) throughout.
For the compound `N#Cc1cc(NC(=O)c2ccccc2)c(=O)n2c1[nH]c1ccccc12`, the GI50 is 30.1 µM (inactive) with DMS-273, 32.7 µM (inactive) with KM-20L2, 33 µM (inactive) in the assay with LXFL 529 and 46.9 µM (inactive) with RXF 631.
In the case of `N[C@H](COCc1ccccc1)c1ccccc1`, the GI50 in the assay on DMS-273 is 23.1 µM (inactive); with KM-20L2, 24.5 µM (inactive); in the assay on LXFL 529, 20.5 µM (inactive).
Regarding `Cc1nc(-n2nc(-c3ccccc3)cc2-c2ccccc2)sc1C(=O)CC(=O)C(=O)Nc1ccc(O)cc1`, the GI50 in the assay on DMS-273, in the assay with KM-20L2, in the assay with LXFL 529 and with RXF 631 was > 100 µM (inactive) in each case.
As for `SCc1ccc(-c2ccc(CS)cc2)cc1`, the GI50 in the assay with BT-549 is 2.42 µM (inactive); in the assay on DMS-273, 24.2 µM (inactive); with Hs-578T it was 3.98 µM (inactive); in the assay on KM-20L2, 23.6 µM (inactive); in the assay with LXFL 529, 14.4 µM (inactive); in the assay on MCF7, 5.32 µM (inactive). The GI50 in the assay with PC-3 was 17.4 µM (inactive).
On to `Cc1cc2c3ccccc3n3c2c2c1OC1(C)CCC(C2C1)C3(C)C` (stereo not given), for which the GI50 in the assay on DMS-273, in the assay with KM-20L2 and in the assay on LXFL 529 was > 25 µM (inactive) in each case.
For the compound `CCS(CC)(CC)CC1CCCC2=CCC(P(=O)(c3ccccc3)c3ccccc3)CC21` (stereo not given), the GI50 was 9.08 µM (inactive) in the assay on DMS-273, 11.5 µM (inactive) in the assay on KM-20L2, 9.64 µM (inactive) with LXFL 529 and 13.6 µM (inactive) in the assay with RXF 631.
Turning to `O=C(O)c1cc(=O)c2[nH]c3ccccc3c2s1`, the GI50 with KM-20L2, with LXFL 529 and in the assay on RXF 631 was > 100 µM (inactive) in each case.
With `Cn1c(N/N=C/c2ccc(Cl)cc2)nc(-c2ccc(Cl)cc2)c(C#N)c1=O`, the GI50 in the assay with BT-549 is 21.8 µM (inactive); in the assay with Hs-578T it was 30.3 µM (inactive); in the assay with MCF7, 21.1 µM (inactive); with MDA-N, 53.2 µM (inactive); in the assay on PC-3 it was 26.8 µM (inactive).
With `CC1(C)CC(=O)C=C(NC(=O)c2ccccc2)C1`, the GI50 with DMS-273, in the assay on LXFL 529 and with RXF 631 was > 100 µM (inactive) each time.
In the case of `C(=C1/CCCCC([n+]2ccccc2)=N1)/c1ccccc1`, the GI50 in the assay on DMS-273, in the assay with KM-20L2 and with LXFL 529 was > 100 µM (inactive) each time.
`O=C1OC(c2ccccc2)=N/C1=C/NC(CO)C(=O)O` (stereo not given): the GI50 with DMS-273, in the assay on KM-20L2, in the assay on LXFL 529 and with RXF 631 was > 100 µM (inactive) each time.
Regarding `Cc1cccc(C)c1NC(=O)C(=O)C(C#N)c1ccccc1Cl` (stereo not given), the GI50 with DMS-273, in the assay on KM-20L2 and in the assay with LXFL 529 was > 100 µM (inactive) each time.
On to `O=C1OC(=O)C2C1C1(c3ccccc3)OC2(c2ccccc2)c2c(Br)c(Br)c(Br)c(Br)c21` (stereo not given), for which the GI50 with DMS-273, in the assay with KM-20L2 and with LXFL 529 was > 100 µM (inactive) throughout.
In the case of `Clc1ccc2c(Cl)ncnc2c1`, the GI50 in the assay on DMS-273 and with KM-20L2 was > 100 µM (inactive) in each case.
For `CC(C)(C=O)CC(C#N)/C(=N\NC(N)=O)C(=O)Nc1ccccc1C(N)=O` (stereo not given), the GI50 with KM-20L2 and in the assay with LXFL 529 was > 100 µM (inactive) each time.
With `CC1=Nc2ccccc2C1C(Cc1ccccc1N)c1c(C)[nH]c2ccccc12` (stereo not given), the GI50 with KM-20L2 was 15 µM (inactive); in the assay on LXFL 529, 16 µM (inactive); with RXF 631 it was 18.2 µM (inactive).
As for `COc1cc2ccnc3c2c(c1OC)-c1coc(SC)c1-3`, the GI50 with DMS-273 was 60.8 µM (inactive); with KM-20L2, > 100 µM (inactive); in the assay on LXFL 529, 78.7 µM (inactive); in the assay with RXF 631, > 100 µM (inactive).
Regarding `CCc1cccc(C(C)C)c1NC(=O)C(=O)C(Cc1nc2ccccc2nc1O)C(=O)OC` (stereo not given), the GI50 is 61.4 µM (inactive) in the assay on DMS-273, > 100 µM (inactive) with KM-20L2 and > 100 µM (inactive) in the assay with LXFL 529.
Take `O=[N+]([O-])c1ccc(C[P+](c2ccccc2)(c2ccccc2)c2ccccc2)cc1`: the figures for the GI50 with DMS-273, in the assay on KM-20L2 and with LXFL 529 were 37.8 µM (inactive), 99.3 µM (inactive) and 12.5 µM (inactive), respectively.
For `O=C1c2ccccc2C(=O)c2c(O)c(NCCNCCO)cc(O)c21`, the GI50 was 3.81 µM (inactive) with DMS-273, 4.12 µM (inactive) with KM-20L2 and 5.96 µM (inactive) in the assay with LXFL 529.
Consider `Clc1ccc2nc(-c3ccccc3)nc(Cl)c2c1`, for which the GI50 was 55.5 µM (inactive) with DMS-273, > 100 µM (inactive) in the assay on KM-20L2, 52.7 µM (inactive) in the assay on LXFL 529 and 29.6 µM (inactive) in the assay on RXF 631.
`Nc1cc(=O)n(-c2ccccc2)c(=S)n1-c1ccccc1`: the GI50 in the assay with DMS-273, in the assay with KM-20L2 and in the assay with LXFL 529 was > 100 µM (inactive) each time.
With `Cc1c2oc(=O)c(C#N)cc2c2ccccn12`, the GI50 with BT-549 was 25.8 µM (inactive); in the assay on Hs-578T, > 100 µM (inactive); with MCF7, > 100 µM (inactive); in the assay with MDA-N, > 100 µM (inactive); in the assay with PC-3, > 100 µM (inactive).
As to `COC(=O)C(=O)C(C(=O)C(=O)Nc1nnc(S)[nH]1)c1nc2ccc([N+](=O)[O-])cc2nc1O` (stereo not given), the GI50 in the assay with BT-549 is > 100 µM (inactive); with Hs-578T, > 100 µM (inactive); in the assay with MCF7, 92.7 µM (inactive); in the assay on MDA-N, > 100 µM (inactive); in the assay on PC-3 it was > 100 µM (inactive).
On to `CCOC(=O)C1CC/C(=C(/C#N)C(=O)OC)N1` (stereo not given), for which the GI50 in the assay with DMS-273, with KM-20L2 and in the assay on LXFL 529 was > 100 µM (inactive) each time.
With `COc1ccc2nccc(C3=CCC4CCN(C(=O)c5ccccc5)C3C4)c2c1` (stereo not given), the GI50 in the assay with DMS-273 and with LXFL 529 was > 100 µM (inactive) throughout.
For the compound `O=C(NCCCCCCNC(=O)n1cc(F)c(=O)[nH]c1=O)NCCCOCCOCCOCCOCCOCCOCCOCCOCCOCCOCCOCCOCCOCCOCCOCCOCCOCCOCCOCCOCCOCCCNC(=O)C(O)C(O)C(OC1OC(CO)C(O)C(O)C1O)C(O)CO` (stereo not given), the GI50 was > 100 µM (inactive) in the assay on BT-549; 19.8 µM (inactive) in the assay on DMS-273; 69.2 µM (inactive) in the assay on Hs-578T; 24.1 µM (inactive) in the assay with KM-20L2; 6.07 µM (inactive) in the assay with MCF7; 10 µM (inactive) with MDA-N. Moreover, the GI50 in the assay with PC-3 is 55.2 µM (inactive).
With `CC(=O)O/N=C(/C)c1ccccc1O`, the GI50 in the assay with DMS-273, in the assay with KM-20L2 and in the assay on LXFL 529 was > 100 µM (inactive) each time.
As to `COc1ccc2[nH]c3c(c2c1)CCN(C)CC3`, the GI50 in the assay with DMS-273, in the assay on KM-20L2 and with RXF 631 was > 100 µM (inactive) throughout.
`C=CC[C@H](C[C@H](C[C@H](C[C@H](C[C@H](C[C@H](C[C@H](C[C@H](C[C@H](C[C@H](CCCCC)OC)OC)OC)OC)OC)OC)OC)OC)OC)OC`: the GI50 with DMS-273 and in the assay with KM-20L2 was > 100 µM (inactive) each time.
On to `Cc1ccc(-n2c3nc(=O)n(C)c(=O)c-3nc3ccccc32)cc1`, for which the figures for the GI50 with DMS-273, in the assay with KM-20L2 and in the assay on LXFL 529 were 4.3 µM (inactive), 5.27 µM (inactive) and 36 µM (inactive), respectively.
Regarding `COc1ccc2c(=O)cc(-c3ccc(OC)c(OC)c3OC)oc2c1`, the GI50 in the assay on BT-549 was > 100 µM (inactive); with Hs-578T, 47.6 µM (inactive); with KM-20L2, 26.5 µM (inactive); in the assay on LXFL 529 it was 40.4 µM (inactive); in the assay on MDA-N, 95.3 µM (inactive); in the assay with PC-3, 60.4 µM (inactive). The GI50 with RXF 631 was 97.3 µM (inactive).
For `COC(=O)C(CC(C)C)NC(=O)CNC(=O)C(Cc1ccc(OCc2ccccc2)cc1)NC(=O)C(COCc1ccccc1)NC(=O)OC(C)(C)C` (stereo not given) (Boc-S(Bn)Y(Bn)GL-OMe; configuration not given here), the GI50 in the assay on BT-549, in the assay with Hs-578T, in the assay on MCF7, with MDA-N and in the assay with PC-3 was > 100 µM (inactive) each time.
With `COc1c(O)c2c(c3cc(C(=O)N4CCc5c4c(O)c(OC)c4[nH]c(C(=O)N6CC7CC78C6=CC(=O)c6[nH]cc(C)c68)cc54)[nH]c13)CCN2C(N)=O` (stereo not given) [CC-1065], the GI50 in the assay on BT-549 was 1.04 µM (active); with DMS-273, 0.00142 µM (active); with Hs-578T it was 0.294 µM (active); with KM-20L2, 0.00334 µM (active); in the assay with LXFL 529 it was 0.00834 µM (active); in the assay on MCF7 it was 0.0577 µM (active). Further, the GI50 was 0.237 µM (active) in the assay with MDA-N and 0.164 µM (active) in the assay on PC-3.
Take `O=C(O)CN1CCN(CC(=O)O)CCN(CC(=O)O)CCN(CC(=O)O)CC1` [TETRAXETAN]: the GI50 in the assay with BT-549, in the assay on Hs-578T, in the assay with MCF7, in the assay on MDA-N and with PC-3 was > 100 µM (inactive) throughout.
